Holding throughout (format): cell-based
Experiment [1] has as its system Leishmania donovani axenic amastigote. The experiment in a line: In vitro assay for growth inhibition of Leishmania donovani axenic amastigote (Cell TiterGlo luminescence). The settings on record: L. donovani axenic amastigotes in vitro, read-out: L. donovani amastigotes EC50. Summed up: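 Compound-treated wells received 9600 axenic amastigotes in RPMI 1640-based medium at pH 5.5 (37 °C, 5% CO2). Growth measured as ATP luminescence (CellTiter-Glo) after 2-day incubation; DMSO and reference compounds served as controls.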
Background: Cellular ATP, detected with luciferase, serves as a proxy for viable cell number.

Experiment [2] has as its system L. donovani HU3 strain in mouse peritoneal macrophages. Nature of the experiment: Assay for inhibition of parasitemia of Leishmania donovani in mouse macrophages (SYBR Green nuclei count, high-content imaging). The settings on record: read-out: L. donovani in Mouse Macrophages EC50. Summed up:
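Parasite numbers were counted from SYBR Green-stained nuclei imaged by high-content microscopy after paraformaldehyde fixation and Triton permeabilization. Before this, compound was applied for 5 days at 37° C to BALB/c peritoneal macrophages (2×10^4/well) that had been exposed 24 h to 4×10^5 L. donovani HU3 amastigotes harvested from infected mouse spleens.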

In experiment [3] the test system is Trypanosoma brucei brucei (Lister 427) strain. The experiment in a line: Assay for growth inhibition against Trypanosoma brucei brucei (Cell TiterGlo ATP luminescence). Conditions: T. brucei brucei (Lister 427), read-out: T. Brucei (HAT) EC50. Summed up:
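Growth read-out is cellular ATP by CellTiter-Glo luminescence, measured 30 min after reagent addition, following 2-day incubation at 37 °C in CO2. Parasites (10,000/mL, HMI-9 plus 10% FBS and 10% serum plus) faced 10 threefold dilutions in duplicate; IC50 taken as 50% growth inhibition versus untreated.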

Experiment [4] concerns Trypanosoma cruzi amastigotes cultured in 3T3 fibroblast cells. The experiment in a line: Assay for growth inhibition of kinetoplastid parasite Trypanosoma cruzi (beta-galactosidase Tulahuen strain, CPRG readout). The settings on record: T. cruzi amastigotes in 3T3 fibroblast cells, read-out: Buckner infectious T. cruzi EC50. Summed up:
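3T3 fibroblasts (1,000 cells/well) plated overnight, treated with compound in DMSO, then infected with 10,000 Lac-Z-expressing Tulahuen trypomastigotes. After 6 days, 0.6 mM CPRG with 0.6% NP-40 added for 2 h at room temperature; absorbance gives relative intracellular amastigote numbers. Benznidazole and nifurtimox serve as positive controls.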

The mark [5] stands for this setting: Leishmania donovani, Peritoneal macrophage, L. donovani in mouse peritoneal macrophages.

Usually pEC50 stands for the negative decadic logarithm of the EC50, by convention in mol/L.

pEC50: −log10 of the molar value. Where two headings read alike, the source gives them in different places.

For `O=C(Nc1ccc(F)c(-n2cc3cc(CC(F)(F)F)cnc3n2)c1)N1CC(F)C1` [Compound 152, 3-fluoro-N-(4-fluoro-3-(5-(2,2,2-trifluoroethyl)-2H-pyrazolo[3,4-b]pyridin-2-yl)phenyl)azetidine-1-carboxamide], the pEC50 is 8.43 in experiment [1] (Leishmania donovani); 8.28 in experiment [2] (setting [5]); > 7.64 in experiment [3] (Trypanosoma brucei); 8.77 in experiment [4] (Trypanosoma cruzi, Fibroblast).

For the compound `O=C(Nc1ccc(F)c(-n2cc3cc(Br)cnc3n2)c1)N1CCC1` [Compound 129, N-(3-(5-bromo-2H-pyrazolo[3,4-b]pyridin-2-yl)-4-fluorophenyl)azetidine-1-carboxamide], the pEC50 in experiment [1] (Leishmania donovani) was 7.54; in experiment [2] (Leishmania donovani, Peritoneal macrophage), 7.51; in experiment [3] (Trypanosoma brucei) it was > 7.64; in experiment [4] (Trypanosoma cruzi), 7.82.

For the compound `O=C(Nc1ccc(Cl)c(-n2cc3cc(-c4ccccn4)cnc3n2)c1)N1CC(F)C1` [Compound 283, N-{4-chloro-3-[5-(pyridin-2-yl)-2H-pyrazolo[3,4-b]pyridin-2-yl]phenyl}-3-fluoroazetidine-1-carboxamide], the pEC50 in experiment [1] (Leishmania donovani) is 8.15; in experiment [2] (setting [5]), 7.72; in experiment [3] (Trypanosoma brucei), 8.10; in experiment [4] (Trypanosoma cruzi, Fibroblast), 8.30.

As to `CCC(C)c1cnc2nn(-c3cc(NC(=O)N4CC(F)C4)ccc3F)cc2c1` (centres unmarked) [Compound 25, N-{3-[5-(butan-2-yl)-2H-pyrazolo[3,4-b]pyridin-2-yl]-4-fluorophenyl}-3-fluoroazetidine-1-carboxamide], the pEC50 is 7.68 in experiment [1] (Leishmania donovani); 7.33 in experiment [2] (setting [5]); > 7.64 in experiment [3] (Trypanosoma brucei); 7.77 in experiment [4] (Trypanosoma cruzi, Fibroblast).

On to `O=C(Nc1ccc(F)c(-n2cc3cc(N4CC5(CC5)C4)cnc3n2)c1)N1CC[C@@H](F)C1` [Compound 259, (3R)-N-[3-(5-{5-azaspiro[2.3]hexan-5-yl}-2H-pyrazolo[3,4-b]pyridin-2-yl)-4-fluorophenyl}-3-fluoropyrrolidine-1-carboxamide], for which the pEC50 is 7.92 in experiment [1] (Leishmania donovani); 7.80 in experiment [2] (setting [5]); 8.40 in experiment [3] (Trypanosoma brucei); 8.52 in experiment [4] (Trypanosoma cruzi, Fibroblast).

As to `Cc1nc(C)c(C(=O)Nc2ccc(F)c(-n3cc4cc(CC5CCC5)cnc4n3)c2)o1` [Compound 106, N-{3-[5-(cyclobutylmethyl)-2H-pyrazolo[3,4-b]pyridin-2-yl]-4-fluorophenyl}-2,4-dimethyl-1,3-oxazole-5-carboxamide], the pEC50 was 6.89 in experiment [1] (Leishmania donovani); 7.07 in experiment [2] (setting [5]); < 4.30 in experiment [3] (Trypanosoma brucei); 7.21 in experiment [4] (Trypanosoma cruzi, Fibroblast).

Turning to `O=C(Nc1ccc(F)c(-n2cc3cc(N4CCC4)cnc3n2)c1)N1CC(F)(F)C1` [Compound 144, N-{3-[5-(azetidin-1-yl)-2H-pyrazolo[3,4-b]pyridin-2-yl]-4-fluorophenyl}-3,3-difluoroazetidine-1-carboxamide], the negative logarithm of the EC50 (pEC50) is 7.64 in experiment [1] (Leishmania donovani); 7.64 in experiment [2] (setting [5]); > 7.64 in experiment [3] (Trypanosoma brucei); 7.77 in experiment [4] (Trypanosoma cruzi, Fibroblast).

Consider `O=C(Nc1ccc(F)c(-n2cc3cc(C4CCC4)cnc3n2)c1)N1CCC1` [Compound 93, N-(3-{5-cyclobutyl-2H-pyrazolo[3,4-b]pyridin-2-yl}-4-fluorophenyl)azetidine-1-carboxamide], for which the pEC50 was 7.47 in experiment [1] (Leishmania donovani); 7.49 in experiment [2] (setting [5]); > 7.64 in experiment [3] (Trypanosoma brucei); 8.15 in experiment [4] (Trypanosoma cruzi, Fibroblast).

For `O=C(Nc1ccc(F)c(-n2cc3cc(N4CCN(CC(F)(F)F)CC4)cnc3n2)c1)N1CC(F)C1` [Compound 237, 3-fluoro-N-(4-fluoro-3-{5-[4-(2,2,2-trifluoroethyl)piperazin-1-yl]-2H-pyrazolo[3,4-b]pyridin-2-yl}phenyl)azetidine-1-carboxamide], the pEC50 in experiment [1] (Leishmania donovani) was 7.80; in experiment [2] (setting [5]) it was 8.05; in experiment [3] (Trypanosoma brucei), 8.30; in experiment [4] (Trypanosoma cruzi, Fibroblast) it was 7.68.

For the compound `O=C(Nc1ccc(F)c(-n2cc3cc(N4CCC4)cnc3n2)c1)N1CC(F)C1` [Compound 147, N-{3-[5-(azetidin-1-yl)-2H-pyrazolo[3,4-b]pyridin-2-yl]-4-fluorophenyl}-3-fluoroazetidine-1-carboxamide], the pEC50 in experiment [1] (Leishmania donovani) was 8.21; in experiment [2] (setting [5]), 7.59; in experiment [3] (Trypanosoma brucei), > 7.64; in experiment [4] (Trypanosoma cruzi, Fibroblast) it was 8.32.

On to `CCC(C)(C)c1cnc2nn(-c3cc(NC(=O)N4CC(F)C4)ccc3F)cc2c1` [Compound 24, 3-fluoro-N-{4-fluoro-3-[5-(2-methylbutan-2-yl)-2H-pyrazolo[3,4-b]pyridin-2-yl]phenyl}azetidine-1-carboxamide], for which the pEC50 in experiment [1] (Leishmania donovani) was 6.06; in experiment [2] (setting [5]), 6.00; in experiment [3] (Trypanosoma brucei), 6.21; in experiment [4] (Trypanosoma cruzi, Fibroblast), 6.36.

Regarding `O=C(Nc1ccc(F)c(-n2cc3cc(N4C[C@@H](F)[C@H](F)C4)cnc3n2)c1)N1CC(F)C1` [Compound 234, N-(3-{5-[(3R,4R)-3,4-difluoropyrrolidin-1-yl]-2H-pyrazolo[3,4-b]pyridin-2-yl]-4-fluorophenyl)-3-fluoroazetidine-1-carboxamide], the pEC50 is 7.57 in experiment [1] (Leishmania donovani); 8.52 in experiment [2] (setting [5]); 8.30 in experiment [3]; 8.05 in experiment [4] (Trypanosoma cruzi, Fibroblast).

Regarding `O=C(Nc1ccc(F)c(-n2cc3cc(N4CC(F)C4)cnc3n2)c1)C1CC1` [Compound 327, N-{4-fluoro-3-[5-(3-fluoroazetidin-1-yl)-2H-pyrazolo[3,4-b]pyridin-2-yl]phenyl}cyclopropanecarboxamide], the pEC50 in experiment [1] (Leishmania donovani) was 6.45; in experiment [2] (setting [5]), 5.92; in experiment [3] (Trypanosoma brucei), 6.63; in experiment [4] (Trypanosoma cruzi, Fibroblast), 6.83.

In the case of `Cc1nc(C)c(C(=O)Nc2ccc(F)c(-n3cc4cc(CC(F)(F)F)cnc4n3)c2)o1` [Compound 175, N-{4-fluoro-3-[5-(2,2,2-trifluoroethyl)-2H-pyrazolo[3,4-b]pyridin-2-yl]phenyl}-2,4-dimethyl-1,3-oxazole-5-carboxamide], the pEC50 in experiment [1] (Leishmania donovani) was 7.62; in experiment [2] (setting [5]), 8.09; in experiment [3] (Trypanosoma brucei) it was > 7.64; in experiment [4] (Trypanosoma cruzi, Fibroblast), 8.31.

Regarding `Cc1ncoc1C(=O)Nc1ccc(F)c(-n2cc3cc(C(C)C)cnc3n2)c1` [Compound 73, N-{4-fluoro-3-[5-(propan-2-yl)-2H-pyrazolo[3,4-b]pyridin-2-yl]phenyl}-4-methyl-1,3-oxazole-5-carboxamide], the pEC50 in experiment [1] (Leishmania donovani) was 7.00; in experiment [2] (setting [5]), 6.66; in experiment [3] (Trypanosoma brucei), 7.43; in experiment [4] (Trypanosoma cruzi, Fibroblast), 7.24.

With `O=C(Nc1ccc(F)c(-n2cc3cc(N4CC(F)(F)C4)cnc3n2)c1)[C@@H]1C[C@H]1F` (single isomer, unassigned) [Compound 271, (1 S,2R)—N-(3-(5-(3,3-difluoroazetidin-1-yl)-2H-pyrazolo[3,4-b]pyridin-2-yl)-4-fluorophenyl)-2-fluorocyclopropane-1-carboxamide or (1R,2S)—N-(3-(5-(3,3-difluoroazetidin-1-yl)-2H-pyrazolo[3,4-b]pyridin-2-yl)-4-fluorophenyl)-2-fluorocyclopropane-1-carboxamide], the pEC50 was 6.92 in experiment [1], 8.52 in experiment [2] (L. donovani in mouse peritoneal macrophages), 6.41 in experiment [3] and 6.84 in experiment [4].

As to `O=C(Nc1ccc(F)c(-n2cc3cc(N4CCNCC4)cnc3n2)c1)N1CC(F)C1` [Compound 270, 3-fluoro-N-{4-fluoro-3-[5-(piperazin-1-yl)-2H-pyrazolo[3,4-b]pyridin-2-yl]phenyl}azetidine-1-carboxamide], the pEC50 was 6.63 in experiment [1] (Leishmania donovani); 5.66 in experiment [2] (setting [5]); 7.10 in experiment [3] (Trypanosoma brucei); 5.77 in experiment [4] (Trypanosoma cruzi, Fibroblast).

On to `CCNc1cnc2nn(-c3cc(NC(=O)N4CC(F)C4)ccc3F)cc2c1` [Compound 199, N-{3-[5-(ethylamino)-2H-pyrazolo[3,4-b]pyridin-2-yl]-4-fluorophenyl}-3-fluoroazetidine-1-carboxamide], for which the negative-log EC50 (pEC50) is 6.30 in experiment [1] (Leishmania donovani); 7.68 in experiment [2] (setting [5]); 8.30 in experiment [3] (Trypanosoma brucei); 7.62 in experiment [4] (Trypanosoma cruzi, Fibroblast).

With `O=C(Nc1ccc(F)c(-n2cc3cc(C4CC4)cnc3n2)c1)N1CC[C@@H](F)C1` [Compound 42, (3R)-N-(3-{5-cyclopropyl-2H-pyrazolo[3,4-b]pyridin-2-yl}-4-fluorophenyl)-3-fluoropyrrolidine-1-carboxamide], the pEC50 is 8.52 in experiment [1] (Leishmania donovani); 8.22 in experiment [2] (setting [5]); > 7.64 in experiment [3] (Trypanosoma brucei); 8.74 in experiment [4] (Trypanosoma cruzi, Fibroblast).

For `O=C(O)C1CCN(c2cnc3nn(-c4cc(NC(=O)N5CC(F)C5)ccc4F)cc3c2)CC1` [Compound 236, 1-(2-{2-fluoro-5-[(3-fluoroazetidine-1-carbonyl)amino]phenyl}-2H-pyrazolo[3,4-b]pyridin-5-yl)piperidine-4-carboxylic acid], the pEC50 is 6.58 in experiment [1] (Leishmania donovani); 4.53 in experiment [2] (setting [5]); 5.83 in experiment [3] (Trypanosoma brucei); 4.70 in experiment [4] (Trypanosoma cruzi, Fibroblast).
